Reference: patent publication US20090186838A1, “Amphotericin Derivatives” (Eidgenössische Technische Hochschule Zürich, priority 2006, published 2009)
In brackets after ≈: the same amount, converted by molar mass.

Assays:
[1] = system: DSY-294 C. albican CI; test: MIC determination in Candida strain DSY-294; type: cell-based, Candida albicans; details: Candida albicans
Experimental: (§1) In Vitro Antifungal Activity. MIC values for various strains were determined in accordance with the standard protocol from the National Committee of Clinical Laboratory Standards but using YEPD liquid medium instead of RPMI-1640 medium (National Committee of Clinical Laboratory Standards (Reference Method for Broth Dilution Antifungal Susceptibility Testing of Yeast, M27-A2, Approved Standard-Second Edition, Volume 22, Number 15, 1995). AmB was used as a reference. The strains were cultivated overnight in 5 mL YEPD liquid medium at 30 to 37° C. (30° C. for the strain BY4741; 37° C. for the strain DSY1764) with constant shaking. The saturated cultures were diluted to an ODB600 of 0.1 (3×10P^7 cells/mL). Using 24 wells plate, each well was prepared by adding 1% (12 μL) of DMSO solution of the tested polyene macrolide with 1% (12 μL) yeast cells solution and completed with YEPD (1.176 mL). The plates were sealed with Parafilm and then incubated for 18 to 36 hours at 30 to 37° C. (18 hours at 30° C. for the strain BY4741; 36 hours at 37° C. for the strain DSY1764). The optical density was read at 600 nm using 1.5 mL cuvettes. The MIC value was defined as the drug concentration needed to inhibit growth, less than 5% compared to a drug-free culture.
(§2) MIC values of the polyene macrolides 3, 9 and 10 (Diamine-AmB and its ester and diamide derivative, respectively) in various Candida strains including an AmB-resistant strain C. albicans (DSY1764, with the genotype erg3AΔ::hisG/erg3BΔ::hisG erg11Δ::hisG/erg11Δ::hisG-URA3-hisG) were determined.

[2] = system: CAF2-1 C. albican wt; test: MIC determination in Candida strain CAF2-1; type: cell-based, Candida albicans; details: Candida albicans
Experimental: as §1, §2

[3] = system: DSY-654 C. albican mutant cdr1/2; test: MIC determination in Candida strain DSY-654; type: cell-based, Candida albicans; details: Candida albicans
Experimental: as §1, §2

[4] = system: DSY-1764 C. albican mutant erg3/11 (AmB-resistant strain); test: MIC determination in AmB-resistant Candida strain DSY-1764; type: cell-based, Candida albicans; details: Candida albicans, 36 h
Experimental: as §1, §2

[5] = K+ efflux assay, ergosterol containing vesicles; details: lower concentration, 0.1 μM (FIG. 3a,c,e,g)
Experimental: (§3) FIG. 3. K^+ efflux from vesicles (LUVET100) prepared from […] (POPC) (solid line) or POPC with sterols (dotted line) for ergosterol and (broken line) for cholesterol caused by AmB (1a) (FIGS. 3a,b) and AmB diamine 3 (FIG. 3c,d), AmB diamine ester 9 (FIG. 3e,f) and AmB diamine amide 10 (FIG. 3g,h), added in DMSO to a suspension of vesicles to give final concentrations of 0.1 μM (FIG. 3a,c,e,g) and 1.0 μM (FIG. 3b,d,f,h).
K+ efflux assay. The K^+ efflux measurements were made following a previously described procedure (Zumbuehl, A. et al., Angew. Chem. Int. Ed. 2004, 43, 5181-5185; Zumbuehl, A. et al., Org. Lett. 2004, 6, 3683-3686). The appropriate liposome suspensions were prepared using POPC, cholesterol and ergosterol. Then the liposomes were sized by extrusion through two 400 nm, 200 nm, and finally 100 nm pore size membrane. The resultant “100 nm” unilamellar liposomes were dialyzed against 600 mL of 150 mM NaCl, 5 mM HEPES (pH 7.4) buffer. After, the suspension was diluted with 150 mM NaCl, 5 mM HEPES (pH 7.4) buffer to 1 mM overall lipid concentration (phospholipids+sterols). For each efflux measurement 10 mL of this liposome suspension was placed in a small beaker. Potentiometric measurements were performed with a 16-channel electrode monitor in magnetically stirred solutions at ambient temperature. The reference electrode was a Metrohm double junction Ag/AgCl reference electrode with 3 M KCl as reference electrolyte and 1 M LiOAc as bridge electrolyte. […] The resulting reading (taken after 0.5 h) was used to quantify the 100% K+-release.
As described hereinbefore differential interaction between ergosterol found in fungal membranes and cholesterol in mammalian cells is considered the basis for the selectivity of AmB (1a) as an antifungal agent. The preferential stabilization of ion channel formation in the membrane by ergosterol ultimately results in electrolyte leakage which can be conveniently measured by K^+ efflux from sterol containing vesicles. […]

[6] = K+ efflux assay, cholesterol containing vesicles; details: for K+ efflux with cholesterol-containing vesicles: high concentration, 1.0 μM (FIG. 3b,d,f,h), compared with AmB (1a); for K+ efflux with cholesterol containing vesicles: lower concentration, 0.1 μM (FIG. 3a,c,e,g)
Experimental: as §3
K+ efflux assay. The K^+ efflux measurements were made following a previously described procedure (Zumbuehl, A. et al., Angew. Chem. Int. Ed. 2004, 43, 5181-5185; Zumbuehl, A. et al., Org. Lett. 2004, 6, 3683-3686). The appropriate liposome suspensions were prepared using POPC, cholesterol and ergosterol. Then the liposomes were sized by extrusion through two 400 nm, 200 nm, and finally 100 nm pore size membrane. The resultant “100 nm” unilamellar liposomes were dialyzed against 600 mL of 150 mM NaCl, 5 mM HEPES (pH 7.4) buffer. After, the suspension was diluted with 150 mM NaCl, 5 mM HEPES (pH 7.4) buffer to 1 mM overall lipid concentration (phospholipids+sterols). For each efflux measurement 10 mL of this liposome suspension was placed in a small beaker. Potentiometric measurements were performed with a 16-channel electrode monitor in magnetically stirred solutions at ambient temperature. The reference electrode was a Metrohm double junction Ag/AgCl reference electrode with 3 M KCl as reference electrolyte and 1 M LiOAc as bridge electrolyte. After recording the amphotericin-induced potassium efflux, liposomes were lysed by adding sodium cholate (172 mg). The resulting reading (taken after 0.5 h) was used to quantify the 100% K+-release.
As described hereinbefore differential interaction between ergosterol found in fungal membranes and cholesterol in mammalian cells is considered the basis for the selectivity of AmB (1a) as an antifungal agent. The preferential stabilization of ion channel formation in the membrane by ergosterol ultimately results in electrolyte leakage which can be conveniently measured by K^+ efflux from sterol containing vesicles. To assess the interaction of the polyene macrolide derivatives of the invention with sterols, derivatives 3, 9 and 10 were examined in their ability to lead to K^+ efflux from large unilamellar vesicles (LUV) prepared from POPC (1-palmitoyl-2-oleoyl-sn-glycero-3-phosphocholine) admixed with sterols, mimicking conditions in natural biomembranes (FIG. 3). At high concentration (FIG. 3b,d,f,h), all compounds rapidly induce complete K^+ efflux from vesicles containing ergosterol (dotted line). […] This differentiation between ergosterol and cholesterol is consistent with the observation of reduced hemotoxicity of 3, 9 and 10.

Row | Structure (SMILES) | MIC [1] | MIC [2] | MIC [3] | MIC [4] | K+ efflux with ergosterol containing vesicles [5] | K+ efflux with cholesterol-containing vesicles [6] | K+ efflux with cholesterol containing vesicles [6]
1 | COC(=O)[C@H]1[C@@H]2C[C@@H](O[C@@H]3O[C@H](C)[C@@H](O)[C@H](N(CCCN)CCCN)[C@@H]3O)/C=C/C=C/C=C/C=C/C=C/C=C/C=C/[C@H](C)[C@@H](O)[C@@H](C)[C@H](C)OC(=O)C[C@H](O)C[C@H](O)CC[C@@H](O)[C@H](O)C[C@H](O)C[C@](O)(C[C@@H]1O)O2 [compound 9, N,N-Di-(3-aminopropyl)-AmB Methyl Ester] | 0.25 µM (≈ 0.263 µg/mL) | 0.5 µM (≈ 0.526 µg/mL) | 0.25 µM (≈ 0.263 µg/mL) | 4 µM (≈ 4.21 µg/mL) | observed exclusively with the ergosterol containing vesicles | significantly reduced efflux | indistinguishable from background
2 | C[C@@H]1[C@H](O)[C@@H](C)/C=C/C=C/C=C/C=C/C=C/C=C/C=C/[C@H](O[C@@H]2O[C@H](C)[C@@H](O)[C@H](N(CCCN)CCCN)[C@@H]2O)CC2O[C@](O)(C[C@@H](O)C[C@@H](O)[C@H](O)CC[C@@H](O)C[C@@H](O)CC(=O)O[C@H]1C)C[C@H](O)[C@H]2C(=O)NCCN [compound 10, 16-(N′-(2-Aminoethyl)-carboxamide)-N,N-di-(3-aminopropyl)-AmB] | 1 µM (≈ 1.08 µg/mL) | 2 µM (≈ 2.16 µg/mL) | – | 4 µM (≈ 4.32 µg/mL) | observed exclusively with the ergosterol containing vesicles | significantly reduced efflux | indistinguishable from background
